The assay addresses human c-MER catalytic domain (Homo sapiens (Human), UniProt Q12866). Nature of the assay: TR-FRET Kinase Activity Biochemical Assay (LanthaScreen). Conditions: 10 uM ATP, 1 hour, kinase not given. From the text:
For the SAR (structure-activity relationship) and compound screening, LanthaScreen™ TR-FRET (Time-Resolved fluorescence energy transfer) assay was employed using the phospho-tyrosine specific Terbium (Tb)-labelded antibody with a fluorescein labeled poly-GT (glutamate-tyrosine) as a substrate. Upon excitation at 340 nm by UV, the energy from Tb donor of the antibody is transferred to the fluorescein of the phosphorylated poly GT substrate, and fluorescein emits light at 520 nm. The ratio between the intensity of […] was used to quantify the level of kinase activity. The recombinant proteins of human c-MER and AXL catalytic domains, Fluorescein-labeled poly-GT substrate, Tb-labeled anti-phosphorylated tyrosine antibodies, the kinase assay buffer, and 0.5M EDTA solution were purchased (Life technologies, USA). The TR-FRET assays were carried out in the white low volume 384-well plate (Corning, USA). […] 10 mM EDTA was added to terminate the enzyme reaction, and the level of phosphorylation of poly-GT substrate was determined following 30 min incubation with 2 nM Tb-labeled antibody. The fluorescence intensity was measured with Envision™ plate reader (PerkinElmer, USA).

Molecules are shown by their SMILES. pIC50: −log10 of the molar value.

human c-MER catalytic domain, sequence (Q12866 587-858): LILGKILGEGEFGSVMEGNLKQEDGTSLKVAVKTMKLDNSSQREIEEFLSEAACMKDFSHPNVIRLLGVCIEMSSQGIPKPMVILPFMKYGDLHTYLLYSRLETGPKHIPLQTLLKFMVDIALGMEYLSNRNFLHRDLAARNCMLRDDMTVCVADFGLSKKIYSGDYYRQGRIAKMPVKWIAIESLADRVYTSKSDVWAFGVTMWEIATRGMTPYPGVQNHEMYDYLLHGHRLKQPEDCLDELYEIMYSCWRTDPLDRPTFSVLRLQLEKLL

Turning to `Cn1cc(-c2cnc(N)c(C(=O)N[C@@H]3CCN(C(=O)Nc4ccccc4)C3)c2)cn1` [Example 1, (R)-2-amino-5-(1-methyl-1H-pyrazol-4-yl)-N-(1-(phenylcarbamoyl)pyrrolidin-3-yl)nicotinamide], the pIC50 was 6.00 to 7.00. Under `Nc1ncc(-c2ccc(C(=O)N3CCOCC3)cc2)cc1C(=O)N[C@@H]1CCN(C(=O)Nc2cc(Cl)cc(Cl)c2)C1` [Example 9, (R)-2-amino-N-(1-((3,5-dichlorophenyl)carbamoyl)pyrrolidin-3-yl)-5-(4-(morpholine-4-carbonyl)phenyl)nicotinamide] stands 7.00 to 8.00; under `Nc1ncc(-c2ccc(CO)cc2)cc1C(=O)N[C@@H]1CCN(C(=O)Nc2cc(Cl)cc(Cl)c2)C1` [Example 10, (R)-2-amino-N-(1-((3,5-dichlorophenyl)carbamoyl)pyrrolidin-3-yl)-5-(4-(hydroxymethyl)phenyl)nicotinamide], 7.00 to 8.00. `Cn1cc(-c2cnc(N)c(C(=O)N[C@@H]3CCN(C(=O)Nc4cccnc4)C3)c2)cn1` [Example 13, (R)-2-amino-5-(1-methyl-1H-pyrazol-4-yl)-N-(1-(pyridin-3-ylcarbamoyl)pyrrolidin-3-yl)nicotinamide]: the pIC50 is below 6.00. Under `Cn1cc(-c2cnc(N)c(C(=O)N[C@@H]3CCN(C(=O)Nc4cccc(Cl)c4Cl)C3)c2)cn1` [Example 15, (R)-2-amino-N-(1-((2,3-dichlorophenyl)carbamoyl)pyrrolidin-3-yl)-5-(1-methyl-1H-pyrazol-4-yl)nicotinamide] stands 7.00 to 8.00; under `CCc1ccccc1NC(=O)N1CC[C@@H](NC(=O)c2cc(-c3cnn(C)c3)cnc2N)C1` [Example 20, (R)-2-amino-N-(1-((2-ethylphenyl)carbamoyl)pyrrolidin-3-yl)-5-(1-methyl-1H-pyrazol-4-yl)nicotinamide], below 6.00; under `Cn1cc(-c2cnc(N)c(C(=O)N[C@@H]3CCN(C(=O)Nc4cccc(Br)c4)C3)c2)cn1` [Example 24, (R)-2-amino-N-(1-((3-bromophenyl)carbamoyl)pyrrolidin-3-yl)-5-(1-methyl-1H-pyrazol-4-yl)nicotinamide], 6.00 to 7.00. Under `COc1cc(NC(=O)N2CC[C@@H](NC(=O)c3cc(-c4cnn(C)c4)cnc3N)C2)cc(OC)c1OC` [Example 35, (R)-2-amino-5-(1-methyl-1H-pyrazol-4-yl)-N-(1-((3,4,5-trimethoxyphenyl)carbamoyl)pyrrolidin-3-yl)nicotinamide] stands 6.00 to 7.00. Under `CN1CCN(Cc2ccc(-c3cnc(N)c(C(=O)N[C@@H]4CCN(C(=O)Nc5cccc(-c6ccccc6)c5)C4)c3)cc2)CC1` [Example 37, (R)—N-(1-([1,1′-biphenyl]-3-ylcarbamoyl)pyrrolidin-3-yl)-2-amino-5-(4-((4-methylpiperazin-1-yl)methyl)phenyl)nicotinamide] stands 7.00 to 8.00.

`Nc1ncc(-c2ccc(CN3CCC(O)CC3)cc2)cc1C(=O)N[C@@H]1CCN(C(=O)Nc2cccc(-c3ccccc3)c2)C1` [Example 39, (R)—N-(1-([1,1′-biphenyl]-3-ylcarbamoyl)pyrrolidin-3-yl)-2-amino-5-(4-((4-hydroxypiperidin-1-yl)methyl)phenyl)nicotinamide]: the pIC50 was 7.00 to 8.00. The compound `Cn1cc(-c2cnc(N)c(C(=O)N[C@@H]3CCN(C(=S)Nc4ccc(N5CCOCC5)cc4)C3)c2)cn1` [Example 49, (R)-2-amino-5-(1-methyl-1H-pyrazol-4-yl)-N-(1-((4-morpholinophenyl)carbamothioyl)pyrrolidin-3-yl)nicotinamide] showed a pIC50 of 6.00 to 7.00.

For the compound `Cn1cc(-c2cnc(N)c(C(=O)N[C@@H]3CCN(C(=O)Oc4ccccc4N)C3)c2)cn1` [Example 70, 2-aminophenyl (R)-3-(2-amino-5-(1-methyl-1H-pyrazol-4-yl)nicotinamido)pyrrolidine-1-carboxylate], the pIC50 is below 6.00. `CC1CC(C)CC(OC(=O)N2CC[C@@H](NC(=O)c3cc(-c4cnn(C)c4)cnc3N)C2)C1` (stereo partly drawn) [Example 79, 3,5-dimethylcyclohexyl (3R)-3-(2-amino-5-(1-methyl-1H-pyrazol-4-yl)nicotinamido)pyrrolidine-1-carboxylate] had a pIC50 below 6.00. In the case of `CN1CCN(Cc2ccc(-c3cnc(N)c(C(=O)N[C@@H]4CCN(C(=O)Oc5cccc(-c6ccccc6)c5)C4)c3)cc2)CC1` [Example 82, [1,1′-biphenyl]-3-yl (R)-3-(2-amino-5-(4-((4-methylpiperazin-1-yl)methyl)phenyl)nicotinamido)pyrrolidine-1-carboxylate], the pIC50 is 7.00 to 8.00.

`Cn1cc(-c2cnc(N)c(C(=O)N[C@@H]3CCN(C(=O)Oc4ccc5ccc(O)cc5c4)C3)c2)cn1` [Example 95, 7-hydroxynaphthalen-2-yl (R)-3-(2-amino-5-(1-methyl-1H-pyrazol-4-yl)nicotinamido)pyrrolidine-1-carboxylate]: the pIC50 is 6.00 to 7.00. As for `C[C@H]1CCCC[C@H]1OC(=O)N1CC[C@@H](NC(=O)c2cc(-c3cnn(C)c3)cnc2N)C1` [Example 108, (1R,2S)-2-methylcyclohexyl (R)-3-(2-amino-5-(1-methyl-1H-pyrazol-4-yl)nicotinamido)pyrrolidine-1-carboxylate], the figure is below 6.00. Under `CN1CCN(Cc2ccc(Oc3ccc(OC(=O)N4CC[C@@H](NC(=O)c5cc(-c6cnn(C)c6)cnc5N)C4)cc3)cc2)CC1` [Example 113, 4-(4-((4-methylpiperazin-1-yl)methyl)phenoxy)phenyl (R)-3-(2-amino-5-(1-methyl-1H-pyrazol-4-yl)nicotinamido)pyrrolidine-1-carboxylate] stands 6.00 to 7.00.

For `Cn1cc(-c2cnc(N)c(C(=O)N[C@@H]3CCN(C(=O)Oc4cccc(-c5ccccc5)c4)C3)c2)cn1` [Example 117, [1,1′-biphenyl]-3-yl (R)-3-(2-amino-5-(1-methyl-1H-pyrazol-4-yl)nicotinamido)pyrrolidine-1-carboxylate], the pIC50 was 7.00 to 8.00.

With `CN1CCN(Cc2ccc(-c3cnc(N)c(C(=O)N[C@@H]4CCN(C(=O)Oc5ccccc5)C4)c3)cc2)CC1` [Example 118, phenyl (R)-3-(2-amino-5-(4-((4-methylpiperazin-1-yl)methyl)phenyl)nicotinamido)pyrrolidine-1-carboxylate], the negative logarithm of the IC50 (pIC50) is 6.00 to 7.00. As for `Cn1cc(-c2cnc(N)c(C(=O)N[C@@H]3CCN(C(=O)O[C@H]4CCC[C@@H]4OCc4ccccc4)C3)c2)cn1` [Example 120, (1S,2S)-2-(benzyloxy)cyclopentyl (R)-3-(2-amino-5-(1-methyl-1H-pyrazol-4-yl)nicotinamido)pyrrolidine-1-carboxylate], the pIC50 is below 6.00. Compound `Cn1cc(-c2cnc(N)c(C(=O)N[C@@H]3CCN(C(=O)OC4CCC(c5ccccc5)C4)C3)c2)cn1` (stereo partly drawn) [Example 121, 3-phenylcyclopentyl (3R)-3-(2-amino-5-(1-methyl-1H-pyrazol-4-yl)nicotinamido)pyrrolidine-1-carboxylate] showed a pIC50 of 6.00 to 7.00. Under `Cn1cc(-c2cnc(N)c(C(=O)N[C@@H]3CCN(C(=O)OC4CCCN(c5ccc(C=O)cc5)C4)C3)c2)cn1` (stereo partly drawn) [Example 123, 1-(4-formylphenyl)piperidin-3-yl (3R)-3-(2-amino-5-(1-methyl-1H-pyrazol-4-yl)nicotinamido)pyrrolidine-1-carboxylate] stands below 6.00; under `Cn1cc(-c2cnc(N)c(C(=O)N[C@@H]3CCN(C(=O)OC4CCN(c5ccccc5)C4)C3)c2)cn1` (stereo partly drawn) [Example 126, 1-phenylpyrrolidin-3-yl (3R)-3-(2-amino-5-(1-methyl-1H-pyrazol-4-yl)nicotinamido)pyrrolidine-1-carboxylate], below 6.00. As for `Cn1cc(-c2cnc(N)c(C(=O)N[C@@H]3CCN(C(=O)O[C@@H]4CCN(c5ccccc5)C4)C3)c2)cn1` [Example 127, (R)-1-phenylpyrrolidin-3-yl (R)-3-(2-amino-5-(1-methyl-1H-pyrazol-4-yl)nicotinamido)pyrrolidine-1-carboxylate], the figure is below 6.00. In turn, `Cn1cc(-c2cnc(N)c(C(=O)N[C@@H]3CCN(C(=O)O[C@H]4CCN(c5ccccc5)C4)C3)c2)cn1` [Example 128, (S)-1-phenylpyrrolidin-3-yl (R)-3-(2-amino-5-(1-methyl-1H-pyrazol-4-yl)nicotinamido)pyrrolidine-1-carboxylate] gave a negative logarithm of the IC50 (pIC50) of 6.00 to 7.00. As for `Cc1ccc(N2CC[C@@H](NC(=O)c3cc(-c4cnn(C)c4)cnc3N)C2)cc1` [Example 134, (R)-2-amino-5-(1-methyl-1H-pyrazol-4-yl)-N-(1-(p-tolyl)pyrrolidin-3-yl)nicotinamide], the figure is below 6.00. `Cn1cc(-c2cnc(N)c(C(=O)N[C@@H]3CCN(c4ncc([N+](=O)[O-])s4)C3)c2)cn1` [Example 138, (R)-2-amino-5-(1-methyl-1H-pyrazol-4-yl)-N-(1-(5-nitrothiazol-2-yl)pyrrolidin-3-yl)nicotinamide] showed a negative-log IC50 (pIC50) below 6.00. As for `CC(c1ccccc1Cl)N1CC[C@@H](NC(=O)c2cc(-c3cnn(C4CCNCC4)c3)cnc2N)C1` (stereo partly drawn) [Example 148, 2-amino-N-((3R)-1-(1-(2-chlorophenyl)ethyl)pyrrolidin-3-yl)-5-(1-(piperidin-4-yl)-1H-pyrazol-4-yl)nicotinamide], the figure is 7.00 to 8.00; as for `CC(c1cccc(Cl)c1)N1CC[C@@H](NC(=O)c2cc(-c3cnn(C4CCNCC4)c3)cnc2N)C1` (stereo partly drawn) [Example 149, 2-amino-N-((3R)-1-(1-(3-chlorophenyl)ethyl)pyrrolidin-3-yl)-5-(1-(piperidin-4-yl)-1H-pyrazol-4-yl)nicotinamide], 6.00 to 7.00.

The values are drawn from US12378224B2 (Dong-A Socio Holdings Co., Ltd., priority 2016, dated 2025).
